Some results are limits rather than exact numbers.

Assay type in all cases: in vivo
The subject of one test is Sogatella furcifera. The test is described as follows: Test Example 13: spray on rice seedling, Sogatella furcifera larvae released. The following applies: 50 ppm, 10 ml sprayed on rice seedling, third instar larvae, after 5 days; method equation is a death rate. Here is the method:
(§1) Any of the present compounds 1-6, 1-8, 1-9 and 1-10 (10 mg) was dissolved in a mixed solution (0.1 ml) of xylene, DMF and Sorpol® 3005X (manufactured by Toho Chemical Industry Co., Ltd.) in a ratio of 4:4:1 to obtain a formulation. Each formulation was diluted with water so as to give 50 ppm of the concentration of the active ingredient.
On the other hand, a rice seedling (2.5 leaf stage) planted in a polyethylene cup was sprayed with 10 ml of each test solution. After air-drying the seedling, 10 third instar larvae of Sogatella furcifera were released, and kept in the greenhouse of 25° C. After 5 days, the number of living insects was counted. A death rate was calculated according to the following equation: Death rate (%)={10−(Number of living insects after 5 days)/10}×100 As a result, in the treated-section using each test solution containing each of the present compounds 1-6, 1-8, 1-9 and 1-10, the control value was 100%.

The test system of another test is Laodelphax striatella. The experiment in a line: Test Example 12: spray on rice seedling, Laodelphax striatella larvae released. To be noted: 50 ppm, 10 ml sprayed on rice seedling, third instar larvae, after 5 days; method equation is a death rate. The protocol:
as §1
On the other hand, a rice seedling (2.5 leaf stage) planted in a polyethylene cup was sprayed with 10 ml of each test solution. After air-drying the seedling, 10 third instar larvae of Laodelphax striatella were released, and kept in the greenhouse of 25° C. After 5 days, the number of living insects was counted. A death rate was calculated according to the following equation: Death rate (%)={10−(Number of living insects after 5 days)/10}×100

Another test relates to Aphis gossypii. The test is described as follows: Test Example 1: foliar spray on cucumber seedling inoculated with Aphis gossypii. To be noted: 144 h, 500 ppm active ingredient, 20 ml sprayed on cucumber seedling, 6 days after spraying. Here is the method:
On the other hand, on a cucumber seedling (the first true leaf stage) planted in a plastic cup was inoculated with about 30 Aphis gossypii (whole stage), and leaving it for a day. Twenty (20) ml of each test solution was sprayed on the seedling. Six (6) days after spraying, the number of the surviving Aphis gossypii parasitized on the leaves of the cucumber was examined, and a control value was calculated according to the following equation: Controlling value (%)={1−(Cb×Tai)/(Cai×Tb)}×100 wherein the symbols in the above equation represent as follows: Cb: the number of insects in a non-treated section before treatment Cai: the number of insects in a non-treated section on observation Tb: the number of insects in a treated section before treatment Tai: the number of insects in a […] the non-treated section represents a section where the test diluted solution prepared by diluting the formulation without the present compound as in Formulation Example 5 with the same amount of water as in the treated-section was used.

The next test deals with Plutella xylostella. The experiment in a line: Test Example 6: spray on cabbage, Plutella xylostella larvae released. To be noted: 120 h, 20 mL/cup sprayed on cabbage, second instar larvae, 25° C., 5 days, read-out: death rate. The protocol: Each test solution was prepared by diluting a formulation containing any of the present compounds 1-4, 1-5, 1-6, 1-8, 1-9, 1-10, 1-16, 1-18, 1-19, 1-20, 1-29, 1-46, 1-48, 1-49, 1-50, 1-63 and 1-76 as obtained in Formulation Example 5, with water so as to give 500 ppm of the concentration of the active ingredient.
On the other hand, Cabbage (the third leaf stage) planted in a polyethylene cup was sprayed with 20 mL/cup of each test solution. After the test solution was dried, the aerial part was cut off, and then placed in a 50 mL volume cup. Five (5) second instar larvae of Plutella xylostella were released into the cup, and the cup was sealed with a lid. After the cup was kept at 25° C. for 5 days, the number of living insects was counted. A death rate was calculated according to the following equation: Death rate (%)=(Number of dead insects/Number of tested insects)×100

For test [1], the system named is Nilaparvata lugens. The test is described as follows: Test Example 3: spray on rice seedling, Nilaparvata lugens larvae released. The following applies: 144 h, 10 ml sprayed on rice seedling, third-fourth instar larvae, after 6 days. The protocol: On the other hand, a rice seedling (the second leaf stage) planted in a polyethylene cup was sprayed with 10 ml of each test solution. After air-drying, 20 third-fourth instar larvae of Nilaparvata lugens were released, and kept in the greenhouse of 25° C. After 6 days, the number of insect of living Nilaparvata lugens parasitized on the rice was examined, and a control value was calculated according to the following equation: Controlling value (%)={1−(Cb×Tai)/(Cai×Tb)}×100 wherein the symbols in the above equation represent as follows: Cb: the number of insects in a non-treated section before treatment Cai: the number of insects in a non-treated section on observation Tb: the number of insects in a treated section before treatment Tai: the number of insects in a […] the non-treated section represents a section where the test diluted solution prepared by diluting the formulation without the present compound as in Formulation Example 5 with the same amount of water as in the treated-section was used.

In test [2] the test system is Nilaparvata lugens. The test is described as follows: Test Example 4: soil drench of rice seedling, Nilaparvata lugens larvae released. The following applies: 144 h, 5 ml drench at foot of rice seedling, larvae released after 7 days, counted 6 days later. Here is the method: On the other hand, a rice seedling (2 weeks after sowing, the second leaf stage) planted in a plastic cup was drenched at its foot with 5 ml of each test solution, and kept in a greenhouse of 25° C. for 7 days. Twenty (20) third-fourth instar larvae of Nilaparvata lugens were released, and further kept in the greenhouse for 6 days, then the number of insect of living Nilaparvata lugens parasitized on the rice was examined, and a control value was calculated according to the following equation: Controlling value (%)={1−(Cb×Tai)/(Cai×Tb)}×100 wherein the symbols in the above equation represent as follows: Cb: the number of insects in a non-treated section before treatment Cai: the number of insects in a non-treated section on observation Tb: the number of insects in a treated section before treatment Tai: the number of insects in a […] the non-treated section represents a section where the test diluted solution prepared by diluting the formulation without the present compound as in Formulation Example 5 with the same amount of water as in the treated-section was used.

In the next test the test system is Musca domestica. The experiment in a line: Test Example 8: treated filter paper with sucrose bait, Musca domestica. To be noted: 500 ppm, 0.7 ml on filter paper, female imagoes, after 24 hours. The protocol:
Each test solution was prepared by diluting a formulation containing any of the present compounds 1-4, 1-6, 1-8, 1-9, 1-10, 1-63 and 1-95 as obtained in Formulation Example 5, with water so as to give 500 ppm of the concentration of the active ingredient.
A filter paper having a diameter of 5.5 cm was spread on the bottom of a polyethylene cup having a diameter of 5.5 cm and each test solution (0.7 ml) was added dropwise onto the filter paper. As a bait sucrose (30 mg) was uniformly placed on the filter paper. Into the polyethylene cup, 10 female imagoes of Musca domestica were released and the cup was sealed with a lid. After 24 hours, the number of surviving Musca domestica was examined and the death rate of the pest was calculated according to the following equation: Death rate (%)=(Number of dead insects/Number of tested insects)×100

The test system of the next test is Blattalla germanica. The experiment in a line: Test Example 9: treated filter paper with sucrose bait, Blattalla germanica. To be noted: 500 ppm, 0.7 ml on filter paper, male imagoes, after 6 hours. The protocol:
Each test solution was prepared by diluting a formulation containing any of the present compounds 1-9 and 1-19 as obtained in Formulation Example 5, with water so as to give 500 ppm of the concentration of the active ingredient.
A filter paper having a diameter of 5.5 cm was spread on the bottom of a polyethylene cup having a diameter of 5.5 cm and each test solution (0.7 ml) was added dropwise onto the filter paper. Sucrose (30 mg) as a bait was uniformly placed on the filter paper. Into the polyethylene cup, 2 male imagoes of Blattalla germanica were released and the cup was sealed with a lid. After 6 hours, the number of surviving Blattalla germanica was examined and the death rate of the pest was calculated according to the following equation: Death rate (%)=(Number of dead insects/Number of tested insects)×100

Take `CCS(=O)(=O)c1cccnc1-c1nc2cc(SC(F)(F)F)ccc2o1` [present compound 1-8, 2-(3-ethylsulfonylpyridin-2-yl)-5-(trifluoromethylsulfanyl)benzoxazole]: the control value in the test on Sogatella furcifera and with Laodelphax striatella was 100% throughout. Also, the pest or weed control at 500 ppm is ≥ 90% with Aphis gossypii, ≥ 80% in the test with Plutella xylostella, ≥ 90% with Nilaparvata lugens [1] and ≥ 90% in the test with Nilaparvata lugens [2]. Besides, in the test with Musca domestica, the death rate is on record as 100%.

As to `CCSc1cccnc1-c1nc2cc([S+]([O-])C(F)(F)F)ccc2o1` (stereo not drawn) [present compound 1-63, 2-(3-ethylsulfanylpyridine-2-yl)-5-(trifluoromethylsulfinyl)benzoxazole], the pest or weed control at 500 ppm in the test on Aphis gossypii is ≥ 90%; in the test on Plutella xylostella, ≥ 80%; in the test with Nilaparvata lugens [2], ≥ 90%. This compound also registered a death rate in the test with Musca domestica of 100%.

As to `CCS(=O)(=O)c1ccc[n+]([O-])c1-c1nc2cc(S(=O)(=O)C(F)(F)F)ccc2o1` [present compound 1-76], the pest or weed control at 500 ppm is ≥ 90% in the test with Aphis gossypii, ≥ 80% in the test on Plutella xylostella, ≥ 90% with Nilaparvata lugens [1] and ≥ 90% in the test on Nilaparvata lugens [2].

As for `CCS(=O)(=O)c1cccnc1-c1nc2cc(S(=O)(=O)C(F)(F)F)cnc2o1` [present compound 1-5, 2-(3-ethylsulfonylpyridin-2-yl)-6-(trifluoromethylsulfonyl)oxazolo[5,4-b]pyridine], the pest or weed control at 500 ppm is ≥ 90% in the test with Aphis gossypii and ≥ 80% in the test with Plutella xylostella.

In the case of `CCS(=O)(=O)c1cc(C(F)(F)F)cnc1-c1nc2cc([S+]([O-])C(F)(F)F)ccc2o1` (stereo not drawn) [present compound 1-19, 2-(3-ethylsulfonyl-5-trifluoromethylpyridine-2-yl)-5-(trifluoromethylsulfinyl)benzoxazole], the pest or weed control at 500 ppm with Aphis gossypii is ≥ 90%; in the test on Plutella xylostella, ≥ 80%; with Nilaparvata lugens [1], ≥ 90%; in the test with Nilaparvata lugens [2] it was ≥ 90%. Besides, in the test with Blattalla germanica, the death rate is on record as 100%.

Take `CCSc1cc(C(F)(F)F)cnc1-c1nc2cc(SC(F)(F)F)ccc2o1` [present compound 1-16, 2-(3-ethylsulfanyl-5-trifluoromethylpyridine-2-yl)-5-(trifluoromethylsulfanyl)benzoxazole]: the pest or weed control at 500 ppm with Plutella xylostella is ≥ 80%.

As for `CCSc1cc(C(F)(F)F)cnc1-c1nc2cc([S+]([O-])C(F)(F)F)cnc2o1` (stereo not drawn) [present compound 1-65, 2-(3-ethylsulfanyl-5-trifluoromethylpyridine-2-yl)-6-(trifluoromethylsulfinyl)oxazolo[5,4-b]pyridine], in the test with Aphis gossypii, the pest or weed control at 500 ppm is ≥ 90%.

On to `CCS(=O)(=O)c1cccnc1-c1nc2cc(S(=O)(=O)C(F)(F)F)ccc2o1` [present compound 1-10, 2-(3-ethylsulfonylpyridin-2-yl)-5-(trifluoromethylsulfonyl)benzoxazole], for which the control value in the test with Sogatella furcifera and with Laodelphax striatella was 100% throughout. Moreover, the pest or weed control at 500 ppm in the test with Aphis gossypii was ≥ 90%; in the test with Plutella xylostella, ≥ 80%; in the test with Nilaparvata lugens [1] it was ≥ 90%; in the test with Nilaparvata lugens [2] it was ≥ 90%. In addition, the death rate in the test with Musca domestica was 100%.

Turning to `CCSc1cccnc1-c1nc2cc(SC(F)(F)F)ccc2o1` [present compound 1-6, 2-(3-ethylsulfanylpyridine-2-yl)-5-(trifluoromethylsulfanyl)benzoxazole], the control value in the test with Sogatella furcifera and in the test on Laodelphax striatella was 100% in each case. Further, the pest or weed control at 500 ppm is ≥ 90% in the test on Aphis gossypii, ≥ 80% with Plutella xylostella, ≥ 90% with Nilaparvata lugens [1] and ≥ 90% in the test with Nilaparvata lugens [2]. In addition, the death rate with Musca domestica is reported as 100%.

For the compound `CCS(=O)(=O)c1cc(C(F)(F)F)cnc1-c1nc2cc(S(=O)(=O)C(F)(F)F)ccc2o1` [present compound 1-20, 2-(3-ethylsulfonyl-5-trifluoromethylpyridine-2-yl)-5-(trifluoromethylsulfonyl)benzoxazole], the figures for the pest or weed control at 500 ppm with Aphis gossypii and with Plutella xylostella were ≥ 90% and ≥ 80%, respectively.

In the case of `CCS(=O)(=O)c1cccnc1-c1nc2cc([S+]([O-])C(F)(F)F)cnc2o1` (stereo not drawn) [present compound 1-4, 2-(3-ethylsulfonylpyridin-2-yl)-6-(trifluoromethylsulfinyl)oxazolo[5,4-b]pyridine], the pest or weed control at 500 ppm was ≥ 90% in the test with Aphis gossypii, ≥ 80% in the test with Plutella xylostella, ≥ 90% in the test with Nilaparvata lugens [1] and ≥ 90% in the test on Nilaparvata lugens [2]. In addition, the death rate in the test on Musca domestica was found to be 100%.

`CCS(=O)(=O)c1cc(C(F)(F)F)cnc1-c1nc2cc(SC(F)(F)F)ccc2o1` [present compound 1-18, 2-(3-ethylsulfonyl-5-trifluoromethylpyridine-2-yl)-5-(trifluoromethylsulfanyl)benzoxazole]: the pest or weed control at 500 ppm with Aphis gossypii is ≥ 90%; in the test with Plutella xylostella it was ≥ 80%; with Nilaparvata lugens [1], ≥ 90%.

Source of the values: US9615580B2, “Fused heterocyclic compound and use thereof for pest control” (Sumitomo Chemical Company, Limited, priority 2012, dated 2017).
